Assay results: patent US11834486B2, “Incretin analogs and uses thereof” (Eli Lilly and Company, priority 2017, dated 2023)
*1 amine or outer side, *2 acyl side, *3 side chain or, on linkers, in order; H or OH if unused. Where a SMILES comes first, the peptide text is derived from it. Side-chain parts run from the residue outwards. [ ]: non-standard residue; d: D form. The star is where a group is joined. C20 diacid = O=C(O)CCCCCCCCCCCCCCCCCCC(=O)*; αMePhe(2-F) = C[C@](N)(Cc1ccccc1F)C(=O)O; γGlu = O=C(O)[C@H](CCC(=O)[*:2])N[*:1]; AEEA = NCCOCCOCC(=O)O; Aib = CC(C)(N)C(=O)O

Target: T1, human GIP-R (Homo sapiens, UniProt P48546)
T1 construct: expressed in transfected cells; host or cells: HEK-293 clonal cell line
T1 sequence (P48546 22-466): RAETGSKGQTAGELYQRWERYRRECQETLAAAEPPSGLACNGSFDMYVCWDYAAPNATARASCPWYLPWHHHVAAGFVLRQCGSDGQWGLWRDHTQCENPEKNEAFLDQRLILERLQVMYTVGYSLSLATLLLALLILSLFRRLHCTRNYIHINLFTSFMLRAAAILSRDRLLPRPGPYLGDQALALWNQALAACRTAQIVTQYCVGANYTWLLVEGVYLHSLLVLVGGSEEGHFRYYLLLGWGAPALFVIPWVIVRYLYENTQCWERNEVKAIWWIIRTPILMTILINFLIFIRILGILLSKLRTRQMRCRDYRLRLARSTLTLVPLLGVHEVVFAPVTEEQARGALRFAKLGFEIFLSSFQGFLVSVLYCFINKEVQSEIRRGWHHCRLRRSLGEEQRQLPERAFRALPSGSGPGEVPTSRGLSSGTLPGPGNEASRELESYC
Experiment: cAMP functional activity in GIP-R-expressing HEK-293 cells, FBS and BSA
Format: cell-based
Details: in the presence of FBS and BSA; read-out: cAMP EC50, nM (SEM, n) GIPR

SMILES	EC50 [nM]
CC[C@H](C)[C@H](NC(=O)[C@H](Cc1ccccc1)NC(=O)[C@H](C)NC(=O)C(C)(C)NC(=O)[C@H](CCC(N)=O)NC(=O)[C@H](C)NC(=O)[C@H](CCCCNC(=O)COCCOCCNC(=O)CC[C@H](NC(=O)CCCCCCCCCCCCCCCCCCC(=O)O)C(=O)O)NC(=O)[C@H](CCCCN)NC(=O)[C@H](CC(=O)O)NC(=O)[C@H](CC(C)C)NC(=O)[C@H](CC(C)C)NC(=O)[C@@H](NC(=O)[C@H](CO)NC(=O)[C@H](Cc1ccc(O)cc1)NC(=O)[C@H](CC(=O)O)NC(=O)[C@H](CO)NC(=O)[C@@H](NC(=O)[C@](C)(Cc1ccccc1F)NC(=O)[C@@H](NC(=O)CNC(=O)[C@H](CCC(N)=O)NC(=O)C(C)(C)NC(=O)[C@@H](N)Cc1ccc(O)cc1)[C@@H](C)O)[C@@H](C)O)[C@@H](C)CC)C(=O)N[C@@H](CCC(=O)O)C(=O)N[C@@H](Cc1ccc(O)cc1)C(=O)N[C@@H](CC(C)C)C(=O)N[C@@H](CC(C)C)C(=O)N[C@@H](CCC(=O)O)C(=O)NCC(=O)NCC(=O)N1CCC[C@H]1C(=O)N[C@@H](CO)C(=O)N[C@@H](CO)C(=O)NCC(=O)N[C@@H](C)C(=O)N1CCC[C@H]1C(=O)N1CCC[C@H]1C(=O)N1CCC[C@H]1C(=O)N[C@@H](CO)C(N)=O [Example 4]	1.37
CC[C@H](C)[C@H](NC(=O)[C@H](Cc1ccccc1)NC(=O)[C@H](C)NC(=O)C(C)(C)NC(=O)[C@H](CCC(N)=O)NC(=O)[C@H](C)NC(=O)[C@H](CCCCNC(=O)COCCOCCNC(=O)COCCOCCNC(=O)CC[C@H](NC(=O)CCCCCCCCCCCCCCCCCCC(=O)O)C(=O)O)NC(=O)[C@H](CCCCN)NC(=O)[C@H](CC(=O)O)NC(=O)[C@H](CC(C)C)NC(=O)[C@H](CC(C)C)NC(=O)[C@@H](NC(=O)[C@H](CO)NC(=O)[C@H](Cc1ccc(O)cc1)NC(=O)[C@H](CC(=O)O)NC(=O)[C@H](CO)NC(=O)[C@@H](NC(=O)[C@](C)(Cc1ccccc1F)NC(=O)[C@@H](NC(=O)CNC(=O)[C@H](Cc1c[nH]cn1)NC(=O)C(C)(C)NC(=O)[C@@H](N)Cc1ccc(O)cc1)[C@@H](C)O)[C@@H](C)O)[C@@H](C)CC)C(=O)N[C@@H](CCC(=O)O)C(=O)N[C@@H](Cc1ccc(O)cc1)C(=O)N[C@@H](CC(C)C)C(=O)N[C@@H](CC(C)C)C(=O)N[C@@H](CCC(=O)O)C(=O)NCC(=O)NCC(=O)N1CCC[C@H]1C(=O)N[C@@H](CO)C(=O)N[C@@H](CO)C(=O)NCC(=O)N[C@@H](C)C(=O)N1CCC[C@H]1C(=O)N1CCC[C@H]1C(=O)N1CCC[C@H]1C(=O)N[C@@H](CO)C(N)=O [Example 3] (H-Y[Aib]HGT[αMePhe(2-F)]TSDYSILLDKK([AEEA-AEEA-γGlu-C20 diacid])AQ[Aib]AFIEYLLEGGPSSGAPPPS-NH2)	1.37
